Experimental data published in ChEMBL document CHEMBL5329177, “De novo design of a stapled peptide targeting SARS-CoV-2 spike protein receptor-binding domain” (RSC Med Chem, 2023).
Starred links: 1 amine or outer side, 2 acyl side, 3 side chain; linkers in the order of their positions; H or OH if unused. Positions of bridges follow the written chain, without caps; N, C: chain ends. Non-standard residues stand in square brackets, D forms with d. Residues, ends and D or L forms follow the SMILES beside them. X1 = C[C@@](CC=[*:3])(N[*:1])C(=O)[*:2]

Test system: Vero C1008
Assay: Cytotoxicity against African green monkey Vero E6 cells assessed as inhibition of cell growth measured after 48 hrs by MTT assay
Assay type: toxicity, cell-based
Settings: chlorocebus sabaeus, vero c1008, 48 h, dose 0.05-50 µM

**Q.** CSCC[C@@H]1NC(=O)[C@H](CC(N)=O)NC(=O)[C@@H]2CC(=O)NCCCC[C@H](NC(=O)[C@H](Cc3c[nH]c4ccccc34)NC(=O)[C@@H](NC(=O)[C@H](CCCCN)NC(=O)[C@H](Cc3ccc(O)cc3)NC(=O)[C@H](CC(C)C)NC(=O)[C@H](Cc3c[nH]c4ccccc34)NC(=O)[C@H](CCC(=O)O)NC(=O)[C@@H](NC(=O)CNC(C)=O)[C@@H](C)O)C(C)C)C(=O)N[C@@H](C)C(=O)N[C@@H](Cc3ccccc3)C(=O)N[C@@](C)(C/C=C/C[C@@](C)(C(=O)O)NC1=O)C(=O)N2 (Ac-GTEWLYKVWKAF[X1]DNM[X1]-OH; lactam 10-14; staple (E) 13-17) was tested. Which Activity did it give?
**A.** Its Activity is “Dose-Dependent Effect”.
